Measured values published in PubChem BioAssay AID2060356 (Molecular Pharmacology Branch, DTP, NCI, 2025).
pIC50: −log10 of the molar value. Where “and” joins values, the source holds several entries; their conditions need not be identical. Equal values may be shown once.

System: PDC tumor spheroids with HUVEC/MSC, viability
Experiment: Anticancer human tumor 439559-082-T-J2-PDC patient-derived colon adenocarcinoma cell line growth inhibition [TAK]
Details: for viability, T/C: stronger effect = lower value
Excerpt: Combinatorial screen of targeted agents with TAK-243 and ipatasertib in multi-cell type tumor spheroids
A high-throughput screen of multi-cell type tumor spheroids was designed to identify active combinations of targeted small molecules and TAK-243 or ipatasertib. Complex spheroids include a stromal component modeled by human endothelial cells (HUVEC) and fibroblasts modeled by human mesenchymal stem cells (MSCs). The concentration ranges selected for each drug and investigational agent were based upon clinically achievable concentrations if the clinical Cmax of the agent was known.
Compounds. The drugs and investigational agents: TAK-243 (785004), ipatasertib (767898), everolimus (733504), selumetinib (741078), bortezomib (756655), trametinib (758246), ixazomib (758254), vemurafenib (761431), dabrafenib (764134), sapanisertib (764658), alpelisib (765974), and copanlisib (816437), were obtained from the National Cancer Institute (NCI) Developmental Therapeutics Program Chemical Repository. The FDA-approved anticancer drug set is available from the NCI Developmental Therapeutics Program. […] The stock solutions were prepared in dimethyl sulfoxide (DMSO, Sigma-Aldrich, St. Louis, MO, cat. D2650) at 800-fold the tested concentration and stored at -70 degrees C prior to their use. All drugs and investigational agents were tested over a range starting from a high concentration at or near the clinical Cmax and decreasing in half-log increments. If the clinical Cmax for an agent had not been determined, the highest concentration tested was 10 microM.
NCI60 Cell Culture. NCI60 cell lines were obtained from the NCI Developmental Therapeutics Program Tumor Repository. For each lot of cells, the Repository performed Applied Biosystems AmpFLSTR Identifiler testing with PCR amplification to confirm consistency with the published Identifier STR profile for each cell line. Cells were kept in continuous culture for no more than 20 passages. The optimal seeding densities for each of the cell lines at each time point assessed were determined prior to performing the concentration response studies. Briefly, the NCI60 human tumor lines were grown as monolayers in RPMI 1640 medium supplemented with 10% FBS and 2 mmol/L L-glutamine.
An additional 2 lines were from the NCI60 cell line panel including melanomas, MALME-3M and SK-MEL-2. Pooled donor human umbilical vein endothelial cells (HUVEC, Lonza, cat. CC-2519) and human mesenchymal stem cells (hMSC, Lonza, cat. PT-2501) were purchased from Lonza (Walkersville, MD).
PDMR cell lines were grown in complete medium (DC medium): Dulbecco's modified Eagle's medium (DMEM)/F12 supplemented with 5% fetal bovine serum (FBS), 2 mM L-glutamine, 100 U/mL penicillin and 100 µg/ml streptomycin, 0.4 µg/ml hydrocortisone, 10 ng/ml epidermal growth factor (EGF) recombinant human protein, 24 µg/mL adenine, and 0.1 mg/mL primocin. During culture from frozen stock vials, PDMR cells were cultured in the same medium containing 10 µM Y-27632 (see Table 3). The PDCs were cultured in complete DMEM/F12 media without 10 microM Y-27632 dihydrochloride for at least two passages prior to the screen. The pooled donor HUVEC and hMSC were cultured in endothelial cell growth medium 2 (PromoCell, Heidelberg, Germany, cat. C-22011) and mesenchymal stem cell growth medium 2 (PromoCell, cat. C-28009), respectively. For all experiments, HUVEC and hMSC were used at passages </=5.
For the pre-screen, cell seeding densities were determined from a titration spanning the range from 5,000 to 313 cells per well. The mct-spheroids including 60% malignant cells, 25% HUVEC and 15% MSC dispensed as a mixture into U-bottom Ultra-Low Attachment 384-well plates (Corning, NY)
High-throughput Drug Combination Screening.
Prior to their inoculation into 384-well plates, malignant cells, HUVEC, and hMSC were removed from T flasks using TrypLE express (Thermo Fisher Scientific, cat. 12605036) and harvested by centrifugation for 5 min at 233 x g. […]

[1] = curve of first compound, second compound 0.3 µM
[2] = curve of first compound, second compound 0.949 µM
[3] = curve of first compound, second compound 3 µM
[4] = curve of first compound, second compound 9.49 µM
[5] = curve of first compound, second compound 30 µM
[6] = second compound 0.3 µM, first compound 0.00316 µM
[7] = second compound 0.3 µM, first compound 0.01 µM
[8] = second compound 0.3 µM, first compound 0.0316 µM
[9] = second compound 0.3 µM, first compound 0.1 µM
[10] = second compound 0.949 µM, first compound 0.00316 µM
[11] = second compound 0.949 µM, first compound 0.01 µM
[12] = second compound 0.949 µM, first compound 0.0316 µM
[13] = second compound 0.949 µM, first compound 0.1 µM
[14] = second compound 3 µM, first compound 0.00316 µM
[15] = second compound 3 µM, first compound 0.01 µM
[16] = second compound 3 µM, first compound 0.0316 µM
[17] = second compound 3 µM, first compound 0.1 µM
[18] = second compound 9.49 µM, first compound 0.00316 µM
[19] = second compound 9.49 µM, first compound 0.01 µM
[20] = second compound 9.49 µM, first compound 0.0316 µM
[21] = second compound 9.49 µM, first compound 0.1 µM
[22] = second compound 30 µM, first compound 0.00316 µM
[23] = second compound 30 µM, first compound 0.01 µM
[24] = second compound 30 µM, first compound 0.0316 µM
[25] = second compound 30 µM, first compound 0.1 µM
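Further: spheroids exposed to drugs for seven days before readout.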

SMILES: COc1c(OCCCN2CCOCC2)ccc2c3n(c(=NC(=O)c4cnc(N)nc4)nc12)CCN3 + CC(C)NCC(C(=O)N1CCN(c2ncnc3c2C(C)CC3O)CC1)c1ccc(Cl)cc1
- pIC50 [1]: < 6.00
- pIC50 [2]: < 6.00
- pIC50 [3]: < 6.00
- pIC50 [4]: < 6.00
- pIC50 [5]: < 6.00
- viability, T/C [6]: 98.6%
- viability, T/C [7]: 89.5%
- viability, T/C [8]: 71.3%
- viability, T/C [9]: 73.3%
- viability, T/C (second compound 0.3 µM, first compound 0.316 µM): 61.8%
- viability, T/C (second compound 0.3 µM, first compound 1 µM): 66.9%
- viability, T/C [10]: 98.5%
- viability, T/C [11]: 91.5%
- viability, T/C [12]: 76.2%
- viability, T/C [13]: 72.4%
- viability, T/C (second compound 0.949 µM, first compound 0.316 µM): 66.8%
- viability, T/C (second compound 0.949 µM, first compound 1 µM): 65.8%
- viability, T/C [14]: 85.1%
- viability, T/C [15]: 88.4%
- viability, T/C [16]: 75.5%
- viability, T/C [17]: 71.3%
- viability, T/C (second compound 3 µM, first compound 0.316 µM): 66.8%
- viability, T/C (second compound 3 µM, first compound 1 µM): 69.7%
- viability, T/C [18]: 90.6%
- viability, T/C [19]: 80.8%
- viability, T/C [20]: 80.9%
- viability, T/C [21]: 73.7%
- viability, T/C (second compound 9.49 µM, first compound 0.316 µM): 67.8%
- viability, T/C (second compound 9.49 µM, first compound 1 µM): 70.9%
- viability, T/C [22]: 83.9%
- viability, T/C [23]: 79%
- viability, T/C [24]: 72.6%
- viability, T/C [25]: 68.9%
- viability, T/C (second compound 30 µM, first compound 0.316 µM): 64.5%
- viability, T/C (second compound 30 µM, first compound 1 µM): 72.7%

SMILES: CC(=O)Nc1cccc(-n2c(=O)n(C3CC3)c(=O)c3c(Nc4ccc(I)cc4F)n(C)c(=O)c(C)c32)c1
- viability, T/C (compound 94.9 pM): 105% and 111%
- viability, T/C (compound 0.0003 µM): 101% and 94.9%
- viability, T/C (compound 0.000949 µM): 91% and 88.8%
- viability, T/C (compound 0.003 µM): 73.6% and 75.2%
- viability, T/C (compound 0.00949 µM): 72.6% and 75.3%
- viability, T/C (compound 0.03 µM): 63.9% and 60.4%
- pIC50 (curve of compound): < 7.52

SMILES: COC1CC2CCC(C)C(O)(O2)C(=O)C(=O)N2CCCCC2C(=O)OC(C(C)CC2CCC(OCCO)C(OC)C2)CC(=O)C(C)C=C(C)C(O)C(OC)C(=O)C(C)CC(C)C=CC=CC=C1C (centres undefined) + CC(C)NCC(C(=O)N1CCN(c2ncnc3c2C(C)CC3O)CC1)c1ccc(Cl)cc1
- pIC50 [1]: < 7.00
- pIC50 [2]: < 7.00
- pIC50 [3]: < 7.00
- pIC50 [4]: < 7.00
- pIC50 [5]: < 7.00
- viability, T/C (second compound 0.3 µM, first compound 0.000316 µM): 110%
- viability, T/C (second compound 0.3 µM, first compound 0.001 µM): 97.1%
- viability, T/C [6]: 81.7%
- viability, T/C [7]: 90.4%
- viability, T/C [8]: 83.7%
- viability, T/C [9]: 82%
- viability, T/C (second compound 0.949 µM, first compound 0.000316 µM): 103%
- viability, T/C (second compound 0.949 µM, first compound 0.001 µM): 88.6%
- viability, T/C [10]: 85.9%
- viability, T/C [11]: 87.4%
- viability, T/C [12]: 87.4%
- viability, T/C [13]: 79.8%
- viability, T/C (second compound 3 µM, first compound 0.000316 µM): 97.4%
- viability, T/C (second compound 3 µM, first compound 0.001 µM): 101%
- viability, T/C [14]: 87.6%
- viability, T/C [15]: 77.9%
- viability, T/C [16]: 81.5%
- viability, T/C [17]: 77.3%
- viability, T/C (second compound 9.49 µM, first compound 0.000316 µM): 91.4%
- viability, T/C (second compound 9.49 µM, first compound 0.001 µM): 88.6%
- viability, T/C [18]: 81.3%
- viability, T/C [19]: 73.7%
- viability, T/C [20]: 75.2%
- viability, T/C [21]: 76.8%
- viability, T/C (second compound 30 µM, first compound 0.000316 µM): 93.1%
- viability, T/C (second compound 30 µM, first compound 0.001 µM): 91.2%
- viability, T/C [22]: 82.8%
- viability, T/C [23]: 77.7%
- viability, T/C [24]: 79.1%
- viability, T/C [25]: 72.7%

SMILES: CC(C)CC(NC(=O)CNC(=O)c1cc(Cl)ccc1Cl)B1OC(=O)CC(CC(=O)O)(C(=O)O)O1 (centres undefined)
- viability, T/C (compound 0.000316 µM): 111% and 114%
- viability, T/C (compound 0.001 µM): 96.4% and 98.7%
- viability, T/C (compound 0.00316 µM): 99.3% and 98.8%
- viability, T/C (compound 0.01 µM): 93.5% and 90.3%
- viability, T/C (compound 0.0316 µM): 85.8% and 77.8%
- viability, T/C (compound 0.1 µM): 62.1% and 56.6%
- pIC50 (curve of compound): < 7.00
